According to ChEMBL document CHEMBL3832548, “DailyMed|setid=ba1cca98-f350-4655-88e3-6ef990779fb9 | KETEK - telithromycin tablet, film coated|Physicians Total Care, Inc”:

Tests used:
Assay type in all cases: ADME, organism-based
[1] = (§1) The pharmacokinetics of Telithromycin evaluated after administration of Ketek to subjects.; settings: human, in vivo; dosed compound id 4, dosed compound name TELITHROMYCIN, route oral, tissue Feces; read-out: Excretion
[2] = system: Homo sapiens; test: as §1; settings: in vivo, po, dosed compound id 4, dosed compound name TELITHROMYCIN, tissue Urine
[3] = The pharmacokinetics of Telithromycin evaluated after administration of single 800-mg doses to healthy adult subjects.; design: dose 800 mg, route oral; settings: human, in vivo, dosed compound id 4, dosed compound name TELITHROMYCIN, gender adult male and female, regimen Single dose, tissue Plasma
[4] = The pharmacokinetics of Telithromycin evaluated after administration of multiple 800-mg doses to healthy adult subjects.; design: dose 800 mg, route oral; settings: human, in vivo, dosed compound id 4, dosed compound name TELITHROMYCIN, gender adult male and female, regimen Multiple dose, tissue Plasma
[5] = po, 800 mg, read-out: AUC(0-24)

CC[C@H]1OC(=O)[C@H](C)C(=O)[C@H](C)[C@@H](O[C@@H]2O[C@H](C)C[C@H](N(C)C)[C@H]2O)[C@](C)(OC)C[C@@H](C)C(=O)[C@H](C)[C@H]2N(CCCCn3cnc(-c4cccnc4)c3)C(=O)O[C@]12C [TELITHROMYCIN]
dose excreted [1]: 7% | Excretion [2]: 13% | Cmax ([3]; po, 800 mg): 1900 ng/mL | AUC [3, 5]: 8250 ng·h/mL | Tmax ([3]; dose 800 mg, route oral): 1 h | half-life ([3]; dose 800 mg, route oral): 430 min | concentration at 24 h ([3]; dose 800 mg, route oral, read-out: C(24h)): 30 ng/mL | Cmax ([4]; po, 800 mg): 2270 ng/mL | AUC [4, 5]: 12500 ng·h/mL | Tmax ([4]; dose 800 mg, route oral): 1 h | half-life ([4]; dose 800 mg, route oral): 589 min
